According to patent US8399672B2, “Compound having affinity for amyloid” (Nihon Medi-Physics Co., Ltd., priority 2007, dated 2013):

How the values were obtained:
[1] = Measurement of transferability into brain and clearance (radioactive accumulation in brain after intravenous injection); type: in vivo, male Wistar rats; settings: rats; for Radioactive accumulation in brain two minutes after the injection (in words): 2 min; for Radioactive accumulation per unit weight of brain, after 2 min.: 2 min after injection; for Radioactive accumulation per unit weight of brain, after 5 min.: 5 min after injection; for Radioactive accumulation per unit weight of brain, after 30 min.: 30 min after injection; for Radioactive accumulation per unit weight of brain, after 60 min.: 60 min after injection; for Clearance of radioactivity from brain (in words): up to 60 min
Experimental: Using Compounds 1, 2 and 3, a time course change of radioactive accumulation in brain of male Wistar rats (7-week old) was measured.
Compound 1 in 10 mg/mL ascorbic acid-containing physiological saline solution (24 MBq/mL in radioactive concentration), Compound 2 in 10 mg/mL ascorbic acid-containing physiological saline solution (30 MBq/mL in radioactive concentration), Compound 4 in 10 mg/mL ascorbic acid-containing physiological saline solution (32 MBq/mL in radioactive concentration) and Compound 3 in 10 mg/mL ascorbic acid-containing physiological saline solution (30 MBq/mL in radioactive concentration) were prepared to obtain sample solutions. The sample solutions were injected under thiopental anesthesia into the tail vein of the male Wistar rats (7-week old) (dosage: 0.05 mL, dosed radioactivity: 1.2-1.5 MBq equivalent). The rats were sacrificed by bleeding from abdominal artery, and brains were removed and subjected to measurement of mass of brains and further subjected to measurement of radioactivity (hereinafter referred to as A in this Example) with a single channel analyzer (detector type: SP-20 manufactured by OHYO KOKEN KOGYO Co., Ltd.) 2, 5, 30 and 60 minutes after the injection. Further, the radioactivity level of the rest of the whole body was measured in the same manner as above (hereinafter referred to as B in this Example). Using these measurement results, radioactive accumulation per unit weight of brain (% ID/g) at the respective time points of dissection was calculated in accordance with the following formula (2) (Examples 19 to 22).
Separately, [^123I]-IMPY in 10 mg/mL ascorbic acid-containing physiological saline solution (20-30 MBq/mL in radioactive concentration) was prepared, the same operation as above was conducted, and radioactive accumulation per unit weight of brain (% ID/g) at the respective time points of dissection was calculated (Comparative Example 2).
Meanwhile, three animals were used for Examples 19 to 22 and Comparative Example 2 at the respective time points.

[2] = Measurement of partition coefficient based on the octanol extraction method (log Poctanol); type: physicochemical; settings: octanol / 10 mmol/L phosphate buffer (pH 7.4); for logD: read-out: logPoctanol value
Experimental: Partition coefficients based on the octanol extraction method (hereinafter referred to as log Poctanol) were measured, which are generally known as an indicator of permeability of compounds through the blood-brain barrier (hereinafter referred to as BBB).
Each diethyl ether solution of Compound 1 (Example 15), Compound 2 (Example 16), Compound 3 (Example 17), Compound 4 (Example 18) and [^123I]-IMPY (Comparative Example 1) was each diluted with 10 mg/mL ascorbic acid-containing physiological saline solution, and adjusted to a radioactive concentration of 20-30 MBq/mL. To 2 mL of octanol, 10 μL each of the solutions was added, and 2 mL of 10 mmol/L phosphate buffer (pH 7.4) was added, followed by stirring for 30 seconds. After each mixture was centrifuged (2000 rpm×60 min.) with a low-speed centrifuge (type: CTD4, manufactured by Hitachi Koki, Co., Ltd.), the octanol layer and the water layer were sampled each in an amount of 1 mL, and subjected to measurement of radioactivity count with an autowell gamma system (Type: ARC-301B, manufactured by Aloka). Using the obtained radioactivity count, log Poctanol was calculated in accordance with the equation (1).

[3] = molecular target: T1, amyloid in brain (aggregated Aβ1-42 injected into amygdaloid nucleus) (Homo sapiens, UniProt P05067); assay: Confirmation of imaging of amyloid in brain (autoradiogram of brain slice after tail vein injection, Thioflavin T staining); type: in vivo, male Wistar rat; settings: rat
T1 construct: Aβ1-42 (manufactured by Wako); purchased Wako
T1 sequence (P05067 672-713): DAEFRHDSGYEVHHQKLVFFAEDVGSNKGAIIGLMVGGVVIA
Experimental: (1) Aβ1-42 (manufactured by Wako) was dissolved in phosphate buffer (pH 7.4) and shaken at 37° C. for 72 hours, to obtain a 1 mg/mL suspension of aggregated Aβ (hereinafter referred to as amyloid suspension in the Examples).
(2) Under thiopental anesthesia, […] of the amyloid suspension was injected into an amygdaloid nucleus on one side of a male Wistar rat (7-week old). As a control, 2.5 μL of a phosphate buffered physiological saline solution (pH 7.4) was injected into an amygdaloid nucleus on the other side of the rat. The rats were examined 1 day after the injection of the amyloid suspension and the phosphate buffered physiological saline solution (pH 7.4).
(3) Compound 1 in a 10 mg/mL ascorbic acid-containing physiological saline solution (24 MBq/mL in radioactivity concentration), Compound 2 in a 10 mg/mL ascorbic acid-containing physiological saline solution (30 MBq/mL in radioactivity concentration) and Compound 4 in a 10 mg/mL ascorbic acid-containing physiological saline solution (32 MBq/mL in radioactivity concentration) were each prepared to obtain a sample solution. This sample solution was injected under thiopental anesthesia into the rat through the tail vein (dosage: 0.5 mL, dosed radioactivity: 12-15 MBq equivalent).
(4) Brain was removed 60 minutes after the injection to prepare a brain slice of 10 μm in thickness with a microtome (type: CM3050S, manufactured by LEICA). The brain slice was exposed to an imaging plate for 20 hours, and then image analysis was carried out by use of a Bio-imaging Analyzer (type: BAS-2500; manufactured by FUJIFILM Corporation).
(5) After the completion of the image analysis using the Bio-imaging Analyzer, pathological staining with Thioflavin T was carried out to perform imaging by use of a fluorescence microscope (manufactured by NIKON Corporation; type: TE2000-U model; excitation wavelength: 400-440 nm; detection wavelength: 470 nm). Thus, it was confirmed that amyloid was deposited on the slice (FIG. 10b, FIG. 11b and FIG. 12b).
The procedure was conducted in the same manner as in Example 23 except that a solution of Compound 3 in 10 mg/mL ascorbic acid-containing physiological saline solution (32 MBq/mL in radioactive concentration) was used as a sample solution, and a brain was removed 120 minutes after injection of the sample solution.

[4] = normal mice, [125I]-labeled, cited from earlier work; for Transfer into brain: 2 minutes after administration
[5] = reported in WO03/106439; cited from earlier work
[6] = brain removed 60 minutes after injection

Compound	Radioactive accumulation in brain two minutes after the injection (in words) [1]	Radioactive accumulation per unit weight of brain, after 2 min. [1] [% ID/g]	Radioactive accumulation per unit weight of brain, after 5 min. [1] [% ID/g]	Radioactive accumulation per unit weight of brain, after 30 min. [1] [% ID/g]	Radioactive accumulation per unit weight of brain, after 60 min. [1] [% ID/g]	Clearance of radioactivity from brain (in words) [1]	logD [2]	Accumulation at intracerebral amyloid / capability of imaging intracerebral amyloid [3, 6]	Transfer into brain [4]	Clearance from normal tissues [4]	logPoctanol value [2]	Accumulation at intracerebral amyloid / capability of imaging intracerebral amyloid ([3]; brain removed 120 minutes after injection)	Result in reverse mutation test [5]
COc1ccc2nc(-c3ccc(OCCCF)c([123I])c3)cn2c1 [Compound 1, 2-[4′-(3″-fluoropropoxy)-3′-[^123I]iodophenyl]-6-methoxyimidazo[1,2-a]pyridine]	significant radioactive accumulation	0.74	0.53	0.11	0.03	tendency to rapidly clear away in 60 minutes	2.3	property of accumulating at intracerebral amyloid					
Cc1cc2nc(-c3ccc(OCCO)cc3)cn2cc1[123I] [Compound 4, 2-[4′-(2″-hydroxyethoxy)phenyl]-6-[^123I]iodo-7-methylimidazo[1,2-a]pyridine]	significant radioactive accumulation	0.80	0.61	0.12	0.03	tendency to rapidly clear away in 60 minutes	2.7	property of accumulating at intracerebral amyloid					
COc1cc(-c2cn3cc([123I])ccc3n2)ccc1OCCF [Compound 2, 2-[4′-(2″-fluoroethoxy)-3′-methoxyphenyl]-6-[^123I]iodoimidazo[1,2-a]pyridine]	significant radioactive accumulation	0.42	0.26	0.04	0.02	tendency to rapidly clear away in 60 minutes	1.8	property of accumulating at intracerebral amyloid					
CN(C)c1ccc(/C=C/c2ccc(I)cc2)cc1 [m-I-SB, (E)-4-dimethylamino-4′-iodostilbene]									transferred into brain	insufficient in clearance from normal tissues			
CN(C)c1ccc(-c2nc3ccc(I)cc3s2)cc1 [TZDM, 6-iodo-2-[4′-(N,N-dimethylamino)phenyl]benzothiazole]									transferred into brain	insufficient in clearance from normal tissues			
CN(C)c1ccc(-c2cn3cc([123I])ccc3n2)cc1 [[^123I]-IMPY, reference compound]		1.19	0.97	0.23	0.09						1.9		
COc1ccc2nc(-c3ccc(OCCF)c([123I])c3)cn2c1 [Compound 3, 2-[4′-(2″-fluoroethoxy)-3′-[^123I]iodophenyl]-6-methoxyimidazo[1,2-a]pyridine]	significant radioactive accumulation	0.70	0.53	0.08	0.03	tendency to rapidly clear away in 60 minutes	2.6					property of accumulating at intracerebral amyloid	
CC(=C(C#N)C#N)c1ccc2cc(N(C)CCF)ccc2c1 [FDDNP, 2-(1-{6-[(2-fluoroethyl)(methyl)amino]-2-naphthyl}ethylidene)malononitrile]													positive
CN(C)c1ccc(-c2nc3ccc(I)cc3o2)cc1 [IBOX, 6-iodo-2-[4′-(N,N-dimethylamino)phenyl]benzoxazole]									transferred into brain	insufficient in clearance from normal tissues			
